Each structure is given as a SMILES string.

Test [1] has as its target T1, FLAG-Rheb / myc-mTOR interaction (Homo sapiens, UniProt Q15382).
T1 construct: expressed in transfected cells
Briefly: Co-immunoprecipitation of overexpressed FLAG-Rheb and myc-mTOR. It is filed as cell-based. The following applies: review-only material. From the text: Response: We agree with Reviewer 2 and have included a brief discussion on the potential effects of chronic Rheb inhibition in the discussion section (p. 25).
“As with any new pharmacological agent, the anticipated side effects will need to be considered. The only data available from the literature that may help in understanding the potential side-effects of reducing Rheb activity come from genetic knock-out studies which, because of their inherent impacts on developmental and other effects, cannot be directly related to what might be expected following pharmacological inhibition. Thus, careful development of a novel Rheb inhibitor would have to take into account the potential organ systems that may be impacted, such as neurological63, 64 and […]
Below is a list of concerns that would need to be addressed in order for this work to be considered for publication in Nature Communications.
1. The authors state that it is “conceivable that portions of NR1 positioned outside the Rheb binding pocket sterically block the interaction with mTORC1. Given that the authors have access to recombinant Rheb and mTOR protein, it is unclear why there is no direct evidence that NR1 can inhibit their interaction. Alternatively, the effects of NR1 on Rheb-mTOR interactions could be shown in cells through co-IP. […]

Test [2] deals with T2, human Rheb protein (1–169) (Homo sapiens, UniProt Q15382).
T2 construct: human Rheb protein (1–169) was purified from BL21 (DE3) Escherichia coli; His-Smt (His-SUMO) (N, cleaved yes); made in house; host or cells: BL21 (DE3) Escherichia coli
T2 sequence (Q15382 1-169): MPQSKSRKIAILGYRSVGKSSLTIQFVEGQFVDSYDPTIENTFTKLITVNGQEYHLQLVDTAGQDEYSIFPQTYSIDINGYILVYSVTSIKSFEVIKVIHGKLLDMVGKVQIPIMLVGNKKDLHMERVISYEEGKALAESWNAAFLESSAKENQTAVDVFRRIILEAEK
Briefly: Isothermal calorimetry (ITC) of binding to Rheb. On the procedure: For the STD-NMR fragment-based screen, HMQC-NMR, ITC, and crystallography, human Rheb protein (1–169) was purified from BL21 (DE3) Escherichia coli using a His-Smt-Rheb expression vector. The cell paste was lysed in lysis buffer (50 mM HEPES pH 7.5, 0.5 M NaCl, 5% Glycerol, 1% CHAPS, EDTA-free protease inhibitor tablets, lysozyme to 1 mg mL^−1, benzonase 250 U), sonicated, and purified on a HiTrap Ni Chelating Column (GE Healthcare) using the following buffer: 50 mM HEPES pH 7.5, 0.5 M NaCl, 5% Glycerol, and imidazole increasing in concentration from 5 mM to 500 mM. The His-Smt tag was cleaved using a Ulp1 enzyme and dialyzed into 50 mM HEPES pH 7.5, 0.5 M NaCl, 5% glycerol. The resultant protein was again purified on a Ni Chelating column to remove the Ulp1 enzyme and His-Smt tag and then purified by size exclusion chromatography on a Sephacryl S-100 26/60 column into the following final buffer: 20 mM NaPhos pH 7.0, 100 mM NaCl, 5 mM MgCl2, 2 mM TCEP. For HMQC NMR, ^15N-labeled Rheb was generated using the same protocol but grown in minimal medium supplemented with ^15N-labeled amino acids.
Supplementary Figure 8. Measurement of binding constant of NR1 with Rheb using isothermal
(1 picture or pasted object on this page, not shown here)
A general note: Isothermal titration calorimetry measures the heat released or taken up as one component is titrated into another.

For test [3], the target named is T3, recombinant human mTOR (Homo sapiens, UniProt P42345).
T3 construct: GST (N); host or cells: insect cells
T3 sequence (P42345 1360-2549): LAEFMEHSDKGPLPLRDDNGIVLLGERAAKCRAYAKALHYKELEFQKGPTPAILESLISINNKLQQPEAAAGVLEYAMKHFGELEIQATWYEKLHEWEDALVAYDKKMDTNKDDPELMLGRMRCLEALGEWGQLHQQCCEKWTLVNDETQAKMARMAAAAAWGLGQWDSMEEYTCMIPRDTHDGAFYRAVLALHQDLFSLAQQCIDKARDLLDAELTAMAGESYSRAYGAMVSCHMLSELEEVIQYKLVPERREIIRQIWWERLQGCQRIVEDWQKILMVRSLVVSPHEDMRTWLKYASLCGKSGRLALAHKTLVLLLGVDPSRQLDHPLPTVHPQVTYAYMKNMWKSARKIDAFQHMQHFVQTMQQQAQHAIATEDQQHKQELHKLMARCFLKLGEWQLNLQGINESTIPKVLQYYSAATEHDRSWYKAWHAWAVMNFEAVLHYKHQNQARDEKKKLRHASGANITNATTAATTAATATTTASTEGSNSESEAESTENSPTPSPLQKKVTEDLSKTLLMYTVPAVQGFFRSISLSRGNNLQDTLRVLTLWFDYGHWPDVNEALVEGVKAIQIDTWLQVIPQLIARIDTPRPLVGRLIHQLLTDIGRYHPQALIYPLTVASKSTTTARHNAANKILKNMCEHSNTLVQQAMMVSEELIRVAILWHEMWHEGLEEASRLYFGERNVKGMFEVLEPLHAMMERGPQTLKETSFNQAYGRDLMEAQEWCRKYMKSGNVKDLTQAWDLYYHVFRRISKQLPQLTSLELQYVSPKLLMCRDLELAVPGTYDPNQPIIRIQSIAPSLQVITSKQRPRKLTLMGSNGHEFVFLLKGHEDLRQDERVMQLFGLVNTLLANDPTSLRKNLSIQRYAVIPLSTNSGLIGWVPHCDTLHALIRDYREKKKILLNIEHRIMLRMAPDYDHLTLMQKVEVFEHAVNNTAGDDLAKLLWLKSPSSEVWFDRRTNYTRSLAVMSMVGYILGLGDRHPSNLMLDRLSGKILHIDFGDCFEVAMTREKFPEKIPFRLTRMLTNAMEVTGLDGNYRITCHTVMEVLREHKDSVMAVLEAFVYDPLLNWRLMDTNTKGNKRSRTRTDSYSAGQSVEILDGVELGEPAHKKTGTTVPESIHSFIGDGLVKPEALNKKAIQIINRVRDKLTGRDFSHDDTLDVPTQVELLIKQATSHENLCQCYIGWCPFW
Briefly: Rheb-independent mTOR in vitro kinase assay (HotSpot, radiometric). The format is biochemical. The following applies: up to a concentration of 30 µM.

The subject of test [4] is MCF-7 cells. Briefly: Protein synthesis assay (35S-methionine incorporation) in MCF-7 cells. The format is cell-based, human. As to conditions: MCF-7, 2.5 h compound, 35S-Met label 30 min. The method, then: Data are plotted as percent decrease in forward scatter. […] Error bars represent standard deviation of the mean of duplicates; graph represents data from one of two separate experiments
Another functional correlate dependent on mTORC1 activity is protein synthesis. […] The functional effects of NR1 on cell size and protein synthesis are consistent with the observed selective inhibition of mTORC1 pathway signaling.
The protein synthesis assay was performed by incubation of MCF7 cells with compounds in MEM + 10% dialyzed FBS for 2.5 h and then incubated in labeling mix (compounds, Met- and Cys-free media, 10% dialyzed FBS, and ^35S protein labeling mix) for 30 min. Cells were lysed, proteins were precipitated, and resuspended pellets were read on a Microbeta 2.

T1 sequence (Q15382 1-181 limits assumed): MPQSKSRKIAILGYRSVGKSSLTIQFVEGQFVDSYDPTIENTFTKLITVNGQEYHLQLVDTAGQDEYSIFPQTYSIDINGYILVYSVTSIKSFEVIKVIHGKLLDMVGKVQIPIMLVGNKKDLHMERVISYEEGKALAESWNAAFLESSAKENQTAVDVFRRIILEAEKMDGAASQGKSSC

In general, Kd refers to the concentration at which binding is half-saturated. High values mean a looser complex, low ones a tighter complex. As for `CN(C)C(=O)c1ccc(Cn2c(C(=O)O)cc3c(Br)cc(Sc4ccc(Cl)c(Cl)c4)cc32)cc1` [NR1, 4-bromo-6-(3,4-dichlorophenylthio)-1-(4-(dimethylcarbamoyl)benzyl)-1H-indole-2-carboxylic acid], the Rheb-mTOR interaction result in test [1] was “does not modulate”. For the same compound, in test [2], binding was characterised by a dissociation constant (Kd) of 1.5 µM and the ΔH of binding entry is “–0.315 kcal mol^−1”. Further, the “inhibitory activity in HotSpot” value in test [3] was “no inhibitory activity”. Also, the protein synthesis entry in test [4] is listed as “dose-dependently reduce protein synthesis”.

Source of the values: PMC5803267, “A small molecule inhibitor of Rheb selectively targets mTORC1 signaling” (Nature Communications, 2018).
